Publication PMC4182434, “Characterization of Niphatenones that Inhibit Androgen Receptor N-Terminal Domain” (PLoS ONE, 2014)

Tests used:
[1] = target: T1, full-length AR (endogenous, LNCaP) (Homo sapiens, UniProt P10275, T878A); assay: PB-luciferase reporter in LNCaP cells; type: cell-based; conditions: R1881-induced, serum-free, […] h; antagonist, AF-1 directed; covalent
T1 construct: endogenous full-length AR of LNCaP cells
T1 sequence (P10275 1-920 T878A): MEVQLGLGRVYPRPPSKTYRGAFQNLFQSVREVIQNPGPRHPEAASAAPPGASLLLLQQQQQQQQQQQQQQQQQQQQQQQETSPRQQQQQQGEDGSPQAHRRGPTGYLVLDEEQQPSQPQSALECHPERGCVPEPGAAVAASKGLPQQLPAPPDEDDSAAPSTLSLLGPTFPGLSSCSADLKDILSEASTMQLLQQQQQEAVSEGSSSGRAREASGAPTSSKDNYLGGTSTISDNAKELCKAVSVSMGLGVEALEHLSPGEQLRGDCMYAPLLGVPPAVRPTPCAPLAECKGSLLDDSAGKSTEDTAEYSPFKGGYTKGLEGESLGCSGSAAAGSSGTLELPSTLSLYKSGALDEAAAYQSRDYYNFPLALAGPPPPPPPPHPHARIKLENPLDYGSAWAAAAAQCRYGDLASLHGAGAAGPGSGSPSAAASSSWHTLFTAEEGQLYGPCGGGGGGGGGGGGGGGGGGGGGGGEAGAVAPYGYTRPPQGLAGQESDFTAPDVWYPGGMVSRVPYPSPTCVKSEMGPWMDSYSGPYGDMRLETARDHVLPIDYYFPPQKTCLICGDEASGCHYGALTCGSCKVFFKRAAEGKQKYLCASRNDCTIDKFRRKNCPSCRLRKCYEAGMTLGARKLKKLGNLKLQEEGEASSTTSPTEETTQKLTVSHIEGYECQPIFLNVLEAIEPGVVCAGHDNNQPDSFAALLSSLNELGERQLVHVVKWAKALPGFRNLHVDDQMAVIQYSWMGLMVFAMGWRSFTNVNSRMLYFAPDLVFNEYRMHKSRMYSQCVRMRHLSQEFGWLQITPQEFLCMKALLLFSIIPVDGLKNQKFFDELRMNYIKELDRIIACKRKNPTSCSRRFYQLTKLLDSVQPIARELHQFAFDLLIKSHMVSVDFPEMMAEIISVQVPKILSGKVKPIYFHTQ

AR AF-1 = target: T2, AR AF-1 (Homo sapiens, UniProt P10275); assay: Click-chemistry fluorescein labelling, SDS-PAGE; type: binding; conditions: covalent; […] protein, […] probe, on ice […] min
T2 construct: recombinant AF-1 region, residues 142-485
T2 sequence (P10275 143-486): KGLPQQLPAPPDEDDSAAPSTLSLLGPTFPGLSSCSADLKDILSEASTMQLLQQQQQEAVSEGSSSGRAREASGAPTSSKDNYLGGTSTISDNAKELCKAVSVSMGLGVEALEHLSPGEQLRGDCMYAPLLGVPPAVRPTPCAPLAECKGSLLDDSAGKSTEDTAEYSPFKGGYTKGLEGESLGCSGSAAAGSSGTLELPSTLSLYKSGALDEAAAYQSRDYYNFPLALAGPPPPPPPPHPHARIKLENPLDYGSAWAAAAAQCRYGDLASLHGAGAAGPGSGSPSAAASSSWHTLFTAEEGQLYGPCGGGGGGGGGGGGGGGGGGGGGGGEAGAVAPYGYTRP

SMILES	IC50 [1] [µM]	Click-chemistry fluorescein labelling, SDS-PAGE (AR AF-1)
CCCCCCCCCCCCC(=O)/C=C/CCCOC[C@H](O)CO [(R)-niphatenone B]	6.3 ± 0.5	
CCCCCCCCCCCCC(=O)/C=C/CCCOC[C@@H](O)CO [(S)-niphatenone B]	5.7 ± 0.6	
C#CCOCC(O)COCCC/C=C/C(=O)CCCCCCCCCCCC (stereo not drawn) [compound 44, niphatenone B 44]		resulted in covalent binding to both AR AF-1 and GR AF-1 peptide
